Oc1ccc(/C=C/c2cc(O)cc(O)c2)cc1
solubility (mole fraction)
Conditions | in dichloromethane | in ethanol | in methanol | in n-butanol | in n-propanol
283.15 K | 1.23e-06 | 0.0212 | 0.0174 | 0.0103 | 0.0134
288.15 K | 1.57e-06 | 0.0224 | 0.0182 | 0.0112 | 0.0145
293.15 K | 2e-06 | 0.0236 | 0.019 | 0.0121 | 0.0156
298.15 K | 2.53e-06 | 0.0248 | 0.0198 | 0.013 | 0.0168
303.15 K | 3.13e-06 | 0.0261 | 0.0206 | 0.014 | 0.018

From BigSolDB 2.1
